Source: patent publication US20220017541A1, “INHIBITORS OF ARGINASE” (Black Belt Tx Ltd, priority 2018, published 2022)

Experiments:
[1] = molecular target: T1, recombinant human ARG1 (Homo sapiens, UniProt P05089); test: Arginase enzymatic assay in vitro, recombinant human ARG1 (colorimetric urea detection); assay type: biochemical; details: recombinant human arginase 1; read-out: IC50 Inh rhARG1
T1 construct: purchased R&D System 5868-AR-010
T1 sequence (P05089 1-322): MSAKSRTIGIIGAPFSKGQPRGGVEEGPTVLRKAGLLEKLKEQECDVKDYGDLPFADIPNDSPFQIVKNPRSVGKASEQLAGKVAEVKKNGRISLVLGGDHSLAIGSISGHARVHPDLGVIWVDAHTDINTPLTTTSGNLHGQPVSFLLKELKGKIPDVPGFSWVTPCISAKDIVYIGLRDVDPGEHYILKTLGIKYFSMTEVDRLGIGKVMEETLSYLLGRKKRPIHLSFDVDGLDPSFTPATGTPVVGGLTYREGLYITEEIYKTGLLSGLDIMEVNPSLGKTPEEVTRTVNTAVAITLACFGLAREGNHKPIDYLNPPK
From the text: (§1) Arginase catalyzes the hydrolysis of L-arginine into L-ornithine and urea. Urea amount produced by this reaction can be detected using a colorimetric assay and used as an indirect measurement of arginase activity. An adapted protocol from (Baggio, R., et al., J Pharmacol Exp Ther, 1999. 290(3): p. 1409-16) was used for the testing the ability of exemplary compounds of the invention to inhibit arginase enzymes from a variety of sources including recombinant human ARG1 and 2, lysates of human red blood cells (RBC) and intact murine macrophages, as described below.
(§2) Compounds of the invention were prepared from powder as 10 mM stock solutions in DMSO and stored in presence of N2 neutral atmosphere at −80° C. For IC50 determination and just before the assay, exemplary compounds were successively diluted to get the following concentrations: 210, 70, 21, 7, 2.1, 0.7, 0.21, 0.07, 0.021, 0.007, 0.0021 and 0.0007 μM (i.e., final concentrations in the wells of 30, 10, 3, 1, 0.3, 0.1, 0.03, 0.01, 0.003, 0.001, 0.0003, 0.0001 μM).
(§3) Assays were run in clear flat bottom 96-well plates (Nunclon, Cat. No. #167008) adding in each well the following solutions in this order: (1) 10 μl of Tris-HCl solution supplemented with 0.1% bovine serum albumin (BSA) containing 1.563 μg/ml recombinant human ARG1 (R&D System, Cat. No. #5868-AR-010), (2) 30 μl of Tris-HCl buffer containing 10 mM MnCl2 and (3) 10 μL of a pre-dilution of each test article or DMSO (vehicle). Compounds were allowed to interact with the enzyme-cofactor complex pre-incubating the plate at 37° C. for 30 min. To start the reaction, 20 μl of 50 mM L-arginine (Sigma Aldrich Cat. #A5006-100G) were added to each well in exception of the blank reaction (see below). All reactions were allowed to happen for 1 h at 37° C. To detect the urea production, reactions were stopped by adding 200 μl of a mixture of reagent A (4 mM o-phthalaldehyde in 50 mM Boric Acid, 1 M Sulfuric Acid, 0.03% Brij-35 (w/v)) and reagent B (4 mM N-(1-naphthyl)ethylenediamine in 50 mM Boric Acid, 1 M Sulfuric Acid, 0.03% Brij-35 (w/v)) in equal proportion. Color product was developed for 1 h at room temperature (RT) protected from light and then absorbance at 520 nm was measured using a Multifunction Microplate Reader (Synergy 4, Bioteck). Blank reactions were carried out by adding the L-arginine substrate only after the addition of mixture A-B. All reactions were carried out in duplicates.
(§4) The inhibition of urea production was calculated subtracting the absorbance from the blank reaction (zero enzymatic urea production) to the absorbance from all reactions and it was expressed as the percentage of the absorbance from the reaction containing the test article with respect to the absorbance from vehicle reaction (maximum of urea production).

[2] = molecular target: T2, recombinant human ARG2 (Homo sapiens, UniProt P78540); test: Arginase enzymatic assay in vitro, recombinant human ARG2 (colorimetric urea detection); assay type: biochemical; details: recombinant human arginase 2; read-out: IC50 Inh rhARG2
T2 construct: purchased BPS Bioscience 71659
T2 sequence (P78540 23-354): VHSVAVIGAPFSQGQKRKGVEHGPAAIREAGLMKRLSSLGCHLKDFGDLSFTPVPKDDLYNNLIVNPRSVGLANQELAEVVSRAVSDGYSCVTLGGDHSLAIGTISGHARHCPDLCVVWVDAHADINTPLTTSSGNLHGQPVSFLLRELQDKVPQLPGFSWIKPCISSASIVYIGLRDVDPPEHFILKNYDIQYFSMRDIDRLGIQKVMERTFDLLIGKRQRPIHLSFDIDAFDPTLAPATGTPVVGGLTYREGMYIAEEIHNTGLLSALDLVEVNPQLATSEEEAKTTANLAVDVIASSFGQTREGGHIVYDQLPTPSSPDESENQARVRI
From the text: as §1, §2, §3, §4
For testing inhibitory activity over recombinant human arginase II, 10 μl of Tris-HCl solution supplemented with 0.1% BSA containing 1.5 μg/ml recombinant human ARG2 (BPS Bioscience, Cat. No. #71659) was used instead of ARG1.

[3] = molecular target: T3, arginase activity in intact BMM-M2 cells (Mus musculus, UniProt Q61176); test: Cell-based arginase assay: urea production by cultured BMM-M2 cells; details: 10 μM test compound, 24 h; for inhibition at 10 µM: read-out: Inh. urea production @10 μM (%)
T3 construct: endogenous in cells; host or cells: bone-marrow derived macrophages from male C57BL/6 mice, polarised to M2 with IL-4
T3 sequence (Q61176 1-323): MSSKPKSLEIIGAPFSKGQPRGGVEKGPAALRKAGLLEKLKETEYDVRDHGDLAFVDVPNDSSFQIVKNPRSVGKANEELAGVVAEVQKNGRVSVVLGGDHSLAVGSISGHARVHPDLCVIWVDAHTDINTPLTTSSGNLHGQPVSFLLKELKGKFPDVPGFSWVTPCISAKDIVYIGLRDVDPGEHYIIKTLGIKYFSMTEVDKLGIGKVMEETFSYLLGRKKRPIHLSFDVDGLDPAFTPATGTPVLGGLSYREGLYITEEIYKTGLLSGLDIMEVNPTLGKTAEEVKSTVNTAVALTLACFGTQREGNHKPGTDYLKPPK
Procedure: Murine bone-marrow derived macrophages (BMM) represent a convenient in vitro model that enables differentiation of these cells towards M1 or M2 macrophages. Briefly, male C57BL/6 mice 7-8 weeks old were euthanized by carbon dioxide asphyxiation. Femur and tibiae bones were removed under aseptic conditions and collected in a plate containing sterile ice-cold PBS 1×. After sterilization of bones in 70% ethanol during 1 min, bones were placed into a clean Petri dish containing fresh sterile ice-cold PBS 1×. The ends of each bone were cut and the marrow cavity was flushed using forceps and syringes filled with pre-warmed complete α-MEM growing medium (α-MEM without red phenol (Life Technologies, Cat. No. #41061-029) supplemented with 10% FBS, penicillin and streptomycin). Bone marrow (BM) cells were harvested in a 15 ml clean tube and centrifuged at 400 g for 8 min at RT. Supernatant was discarded and BM pellet was re-suspended in 5 ml Ammonium-Chloride-Potassium (ACK) buffer for 5 minutes at RT to lysis RBC. BM cell suspension was centrifuged at 400 g for 8 min at RT. Supernatant was discarded and BM cell pellet was re-suspended in complete α-MEM growing medium and passed through a 70 μm cell restrainer to eliminate solid contaminates and cellular aggregates. BM cells were seeded in 8 ml of complete α-MEM growing medium supplemented with 100 ng/ml recombinant mouse M-CSF (R&D Systems, Cat. No. #416-ML-050) in 100-mm dishes. BM cells were cultured overnight to get rid of contaminating stromal cells in a humidified incubator with 5% CO2 at 37° C. At the following day, non-adherent cells were collected in a clean 15-ml tube and centrifuged at 400 g for 8 min at RT. Cell pellet was re-suspended in complete α-MEM growing medium and counted using a hemocytometer Neubauer's chamber. Hematopoietic precursor cells were differentiated into BMM in presence of complete α-MEM growing medium supplemented 50 ng/ml M-CSF for 3 days. Finally to polarize BMM towards M2 phenotype, cells were incubated in presence 20 ng/ml of recombinant mouse IL-4 (R&D Systems, Cat. No. #404-ML-010) added to fresh complete α-MEM growing medium supplemented 50 ng/ml M-CSF for 24 h.
At the day of the experiment, BMM-M2 were treated for 24 h with vehicle (DMSO) or compounds of the invention at 1 and 10 μM prepared in fresh complete α-MEM growing medium supplemented 50 ng/ml M-CSF, 20 ng/ml IL-4 and 10 mM L-arginine (Cat. No. #A5006, Sigma Aldrich). At the next day, 70 μl aliquots of each treated culture media (supernatants) were transferred into a clear 96-well plate. Measurements of urea produced by BMM-M2 were performed using the adapted protocol detailed in Example B1. Wells without BMM-M2 containing only treatment media (vehicle) were used to determine the zero cell-derived urea production (blank). All treatments were carried out in triplicates.
The inhibition of urea production was calculated subtracting the absorbance from the blank to the absorbance from all treatments and it was expressed as the percentage of the absorbance from the reaction containing the test article treatment with respect to the absorbance from vehicle treatment (maximum of urea production).

Compound | IC50 [1] | IC50 [2] | inhibition at 10 µM [3] | Inh. urea production @10 μM (%) [3]
NC(CCCCB(O)O)(C(=O)O)C1CCN(C2Cc3ccccc3C2)CC1 (single isomer, unassigned) [Compound 24, 2-amino-6-borono-2-(1-(2,3-dihydro-1H-inden-2-yl)piperidin-4-yl)hexanoic acid] | 500 to 5000 nM | 500 to 5000 nM |  | ++ (25% < % inhibition < 15% at 10 μM test compound)
NC(CCCCB(O)O)(C(=O)O)C1CCN(C2Cc3ccccc3C2)CC1 (single isomer, unassigned) [Compound 25, 2-amino-6-borono-2-(1-(2,3-dihydro-1H-inden-2-yl)piperidin-4-yl)hexanoic acid] | > 5000 nM | > 5000 nM |  | 
NC(CCCCB(O)O)(C(=O)O)C1CCN(C2CCCc3c(Br)cccc32)CC1 (single isomer, unassigned) [Compound 86, 2-amino-6-borono-2-(1-(5-bromo-1,2,3,4-tetrahydronaphthalen-1-yl)piperidin-4-yl)hexanoic acid] | < 500 nM | 500 to 5000 nM |  | ++ (25% < % inhibition < 15% at 10 μM test compound)
NC(CCCCB(O)O)(C(=O)O)C1CCN(C2CCCc3cc(-c4ccccc4)ccc32)CC1 (single isomer, unassigned) [Compound 87, 2-amino-6-borono-2-(1-(6-phenyl-1,2,3,4-tetrahydronaphthalen-1-yl)piperidin-4-yl)hexanoic acid] | < 500 nM | < 500 nM | > 25% | 
NC(CCCCB(O)O)(C(=O)O)C1CCN(C2CCc3ccc(F)cc32)CC1 (single isomer, unassigned) [Compound 88, 2-amino-6-borono-2-(1-(6-fluoro-2,3-dihydro-1H-inden-1-yl)piperidin-4-yl)hexanoic acid] | < 500 nM | < 500 nM | > 25% | 
CC(c1ccc(F)c(Cl)c1)N1CCC(C(N)(CCCCB(O)O)C(=O)O)CC1 (single isomer, unassigned) [Compound 89, 2-amino-6-borono-2-(1-(1-(3-chloro-4-fluorophenyl)ethyl)piperidin-4-yl)hexanoic acid] | < 500 nM | 500 to 5000 nM |  | ++ (25% < % inhibition < 15% at 10 μM test compound)
CCCC(c1ccccc1)N1CCC(C(N)(CCCCB(O)O)C(=O)O)CC1 (single isomer, unassigned) [Compound 90, 2-amino-6-borono-2-[1-(1-phenylbutyl)-4-piperidyl]hexanoic acid] | 500 to 5000 nM | 500 to 5000 nM |  | 
NC(CCCCB(O)O)(C(=O)O)C1CCN(C2Cc3ccccc3C2)CC1 (stereo not shown) [Compound 23, 2-amino-6-borono-2-(1-(2,3-dihydro-1H-inden-2-yl)piperidin-4-yl)hexanoic acid] | > 5000 nM | > 5000 nM |  | 

Second part, led by results:

IC50 [1] | IC50 [2] | inhibition at 10 µM [3] | Compound | Inh. urea production @10 μM (%) [3]
< 500 nM | 500 to 5000 nM |  | NC(CCCCB(O)O)(C(=O)O)C1CCN(C2CCCc3ccccc32)CC1 (single isomer, unassigned) [Compound 7, 2-amino-6-borono-2-(1-(1,2,3,4-tetrahydronaphthalen-1-yl)piperidin-4-yl)hexanoic acid] | 
< 500 nM | < 500 nM |  | NC(CCCCB(O)O)(C(=O)O)C1CCN(C2CCCc3ccccc32)CC1 (single isomer, unassigned) [Compound 8, 2-amino-6-borono-2-(1-(1,2,3,4-tetrahydronaphthalen-1-yl)piperidin-4-yl)hexanoic acid] | 
< 500 nM | < 500 nM |  | NC(CCCCB(O)O)(C(=O)O)C1CCN(C2CCc3cc(F)c(F)cc32)CC1 (single isomer, unassigned) [Compound 19, 2-amino-6-borono-2-[1-(5,6-difluoroindan-1-yl)-4-piperidyl]hexanoic acid] | ++ (25% < % inhibition < 15% at 10 μM test compound)
< 500 nM | < 500 nM | < 15% | NC(CCCCB(O)O)(C(=O)O)C1CCN(C2CCc3ccc(C(F)(F)F)cc32)CC1 (single isomer, unassigned) [Compound 35, 2-amino-6-borono-2-[1-[6-(trifluoromethyl)indan-1-yl]-4-piperidyl]hexanoic acid] | 
